Results from paper PMC9330353 (Journal of Fungi, 2022).
Entries after “also recorded” stand apart in the source; their conditions may differ.

How the values were obtained:
strain AD/124567 [1] = experiment: Disk diffusion chemosensitization assay; type: cell-based, Saccharomyces cerevisiae; settings: strain AD/124567, medium with 150 µg/mL fluconazole, 50 μg compound per disk, 48 h
Description: To evaluate the ability of the compounds in reversing the MDR phenotype of strain AD/124567, a chemosensitization assay was performed, with slight modifications. Briefly, YPD medium containing 150 µg/mL fluconazole was prepared with 1.5% agarose, and a cell suspension from AD/124567 was incorporated into molten medium (45 °C), reaching a final concentration of 2.4 × 10^6 yeasts/mL. Subsequently, 50 μg of each compound was applied to 6-milimeter Whatman 3MM® blotting paper disks (Sigma-Aldrich®, St. Louis, MO, USA), dried at 30 °C for 30 min, and placed on the solidified medium surface. The plates were incubated at 30 °C for 48 h, photographed, and the inhibition zones were measured. A fluconazole-free medium was also used to evaluate the effects of the compounds alone on yeast growth.

strain AD/124567 [2] = experiment: Checkerboard assay with fluconazole, strain AD/124567; type: cell-based, Saccharomyces cerevisiae
Description: (§1) Culture growth was measured using a microplate reader at 600 nm (Fluostar Optima, BMG Labtech, Offenburg, Germany). Growth inhibition was calculated as described in Section 2.3.
(§2) FICI ≤ 0.5 points to a synergic interaction, whereas 0.5 < FICI < 4.0 and FICI > 4 indicate indifferent and antagonistic interactions, respectively.

[3] = test system: fluconazole-resistant Candida albicans strain 95-142; experiment: Checkerboard assay with fluconazole, strain 95-142; type: cell-based; settings: read-out: Fluconazole MIC a (alone)
Text: (§3) In this study, two S. cerevisiae mutant strains were used. Strain AD/124567 (genotype: MATα, PDR1-3, ura3, his1, Δyor1::hisG, Δsnq2::hisG, Δpdr10::hisG, Δpdr11::hisG, Δycf1::hisG, Δpdr3::hisG) overexpressed Pdr5p, but the genes of all other ABC transporters related to the MDR phenotype (Yor1p, Snq2p, Pdr10p, Pdr11p, and Ycf1p) were deleted. A second strain, AD/1234567, had all MDR related genes deleted, including PDR5 (genotype: MATα, PDR1-3, ura3, his1, Δyor1::hisG, Δsnq2::hisG, Δpdr5::hisG, Δpdr10::hisG, Δpdr11::hisG, Δycf1::hisG, Δpdr3::hisG). Therefore, this strain was highly sensitive to fluconazole. One fluconazole-resistant Candida albicans strain was also used in this study, namely, 95-142. This strain was isolated from the throat of a patient and identified by CHROMagar^TM and PCR. The isolate overexpressed CaCdr1p and CaCdr2p (the most important MDR transporters of C. albicans), and was kindly provided by Dr. Theodore White (University of Missouri, Kansas City, MO, USA).
as §1, §2

Pdr5p [4] = biological target: T1, Pdr5p (Saccharomyces cerevisiae, UniProt P33302); settings: at 100 μg/mL; cited from earlier work
T1 construct: AD/124567 cells in the exponential growth phase were harvested by centrifugation; endogenous in cells; host or cells: S. cerevisiae strain AD/124567 (PDR1-3; other MDR ABC transporter genes deleted)
T1 sequence (P33302 whole entry): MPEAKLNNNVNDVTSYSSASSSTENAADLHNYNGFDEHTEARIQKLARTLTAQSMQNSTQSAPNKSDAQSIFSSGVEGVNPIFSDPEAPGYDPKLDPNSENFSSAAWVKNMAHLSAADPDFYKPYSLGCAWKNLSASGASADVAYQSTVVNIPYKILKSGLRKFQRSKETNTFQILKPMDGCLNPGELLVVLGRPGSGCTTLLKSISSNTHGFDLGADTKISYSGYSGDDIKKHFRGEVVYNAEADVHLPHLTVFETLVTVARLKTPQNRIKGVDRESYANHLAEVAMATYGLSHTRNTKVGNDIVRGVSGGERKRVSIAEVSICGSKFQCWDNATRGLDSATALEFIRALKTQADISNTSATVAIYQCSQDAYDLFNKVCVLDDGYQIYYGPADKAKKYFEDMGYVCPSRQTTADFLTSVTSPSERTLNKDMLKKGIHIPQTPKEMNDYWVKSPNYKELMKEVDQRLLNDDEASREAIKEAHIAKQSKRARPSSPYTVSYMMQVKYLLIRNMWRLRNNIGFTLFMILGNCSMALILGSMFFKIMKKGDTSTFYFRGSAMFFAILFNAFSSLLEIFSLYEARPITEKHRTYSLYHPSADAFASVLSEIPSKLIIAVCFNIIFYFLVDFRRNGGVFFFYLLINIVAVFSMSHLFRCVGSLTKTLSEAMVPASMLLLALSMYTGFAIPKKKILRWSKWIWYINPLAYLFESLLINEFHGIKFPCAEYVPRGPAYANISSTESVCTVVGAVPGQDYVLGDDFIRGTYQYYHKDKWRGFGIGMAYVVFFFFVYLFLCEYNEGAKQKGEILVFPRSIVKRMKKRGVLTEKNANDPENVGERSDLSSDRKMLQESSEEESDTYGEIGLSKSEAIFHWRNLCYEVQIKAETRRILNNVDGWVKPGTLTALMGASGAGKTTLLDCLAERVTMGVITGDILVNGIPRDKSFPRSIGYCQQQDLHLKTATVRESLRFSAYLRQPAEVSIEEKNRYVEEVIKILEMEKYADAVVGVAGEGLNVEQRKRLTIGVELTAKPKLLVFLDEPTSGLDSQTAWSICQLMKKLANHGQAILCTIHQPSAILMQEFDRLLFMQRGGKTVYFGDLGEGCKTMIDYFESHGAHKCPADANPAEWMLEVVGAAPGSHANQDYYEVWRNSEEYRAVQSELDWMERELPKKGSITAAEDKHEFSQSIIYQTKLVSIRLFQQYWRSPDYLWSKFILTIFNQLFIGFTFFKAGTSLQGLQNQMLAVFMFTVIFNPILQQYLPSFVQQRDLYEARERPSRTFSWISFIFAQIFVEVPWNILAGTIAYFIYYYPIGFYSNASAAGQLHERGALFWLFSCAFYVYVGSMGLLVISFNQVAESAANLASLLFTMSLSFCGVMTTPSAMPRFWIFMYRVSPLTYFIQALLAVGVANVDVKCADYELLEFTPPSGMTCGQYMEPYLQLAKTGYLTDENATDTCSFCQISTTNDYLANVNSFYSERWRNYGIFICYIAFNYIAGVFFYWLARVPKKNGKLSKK

[5] = test system: S. cerevisiae strain AD/124567 (overexpresses Pdr5p); experiment: Antifungal susceptibility test (microbroth dilution), strain AD/124567; type: cell-based, Saccharomyces cerevisiae; settings: tested strains AD/1234567 and AD/124567, up to 100 μM
Text: as §3
The antifungal activity of the compounds was evaluated via a microbroth dilution method described by Niimi et al.. […] Culture growth was measured using a microplate reader at 600 nm (Fluostar Optima, BMG Labtech, Offenburg, Germany). […] Growth inhibition was calculated as follows: % Growth inhibition = (Absorbance of growth control − Absorbance of treated sample) × 100/Absorbance of growth control

Pdr5p [6] = biological target: T1, Pdr5p; experiment: Rhodamine 6G accumulation/efflux assay; type: cell-based; settings: strain AD/124567 in the presence of glucose
Description: Efflux assays were performed as described by Reis de Sá et al. (2017). Briefly, AD/124567 cells in the exponential growth phase were harvested by centrifugation at 5000 rpm at room temperature for 5 min, and then washed twice with phosphate-buffered saline (PBS) (0.43 g of KH2PO4; 7.2 g of NaCl; 1.85 g of Na2HPO4; pH 7.2; 990 mL of distilled water). Cells were then resuspended in 10 mL of PBS and starved for 2 h at 4 °C. Subsequently, 10^7 cells/mL were incubated for 30 min at 30 °C with 15 μM R6G. After incubation, cells were washed twice with PBS and further incubated in the presence of the compounds, DMSO, and FK-506 (a classical inhibitor of ABC transporters) for 60 min at 30 °C. […] The supernatants were transferred to the wells of a 96-well polystyrene plate, and fluorescence was measured with a plate reader (Fluostar Optima, BMG Labtech, Offenburg, Germany) at 485 nm (excitation) and 538 nm (emission). To evaluate R6G efflux, fluorescence emitted by the dye in the extracellular milieu was measured. Thus, the fluorescence was directly related to extracellular R6G concentration, and then to Pdr5p activity. […] R6G efflux was calculated as follows: (2) % efflux = Fluorescence of treated sample × 100/Fluorescence of AD/124567 with glucose […]

Pdr5p [7] = biological target: T1, Pdr5p; settings: at 200 μM; cited from earlier work

C=CC[C@@H]1/C=C(\C)C[C@H](C)C[C@H](OC)[C@H]2O[C@@](O)(C(=O)C(=O)N3CCCC[C@H]3C(=O)O[C@H](/C(C)=C/[C@@H]3CC[C@@H](O)[C@H](OC)C3)[C@H](C)[C@@H](O)CC1=O)[C@H](C)C[C@@H]2OC [FK-506]
Inhibition zone (strain AD/124567 [1]): 18 mm

OC(Cn1cncn1)(Cn1cncn1)c1ccc(F)cc1F [Fluconazole]
MIC (strain AD/124567 [2]; Saccharomyces cerevisiae, strain AD/124567, 80% growth inhibition, read-out: Fluconazole MIC a (alone)): 480 µg/mL | MIC [3]: 62.5 µg/mL

CC1(C)CCC2=C(O1)c1ccccc1C(=O)C2=O [Beta-lapachone]
Inhibition of Pdr5p activity (Pdr5p [4]): 79.4%

C[C@H]1O[C@@H](O[C@H]2[C@@H](O)C[C@H](O[C@H]3[C@@H](O)C[C@H](O[C@H]4CC[C@@]5(C)[C@H](CC[C@@H]6[C@@H]5C[C@@H](O)[C@]5(C)[C@@H](C7=CC(=O)OC7)CC[C@]65O)C4)O[C@@H]3C)O[C@@H]2C)C[C@H](O)[C@@H]1O [digoxin, Digoxin]
Interaction with fluconazole (qualitative) (strain AD/124567 [2]; S. cerevisiae, agar diffusion assay and checkerboard titration): indifferent to interaction with fluconazole | Antifungal activity of the compound alone [5]: neither presented antifungal activity | Effect on R6G efflux / Pdr5p activity (qualitative) (Pdr5p [6]): unable to inhibit Pdr5p activity; also recorded: did not affect Pdr5p activity

Nc1ncc(/C=C/CNC(=O)c2cc(Br)c(Br)[nH]2)[nH]1 [Oroidin]
Inhibition of R6G efflux (Pdr5p [7]): 60%
